From patent US7560428B2, “Hair growth promoting oligopeptides” (Sumitomo Electric Industries, Ltd., priority 2004, dated 2009)
Entries after “also recorded” stand apart in the source; their conditions may differ. No end group written: not given here. *: point of attachment. KMUA = N-κ-maleimidoundecanoic acid-derived modifying group bound to a cysteine residue, O=C(O)CCCCCCCCCCN1C(=O)CC(*)C1=O; BMPA = N-β-maleimidopropionic acid-derived modifying group bound to a cysteine residue; Hexanoyl(6-maleimido) = O=C1C=CC(=O)N1CCCCCC(=O)*

test system: AHF (antigen recognized by the monoclonal antibody mAb27); assay: Hair growth promoting activity in cultured mouse skin tissue: strength of the mAb27 reaction (AHF band) by Western blot; type: cell-based, ICR baby mice; conditions: test oligopeptide 20 μM, skin tissue cultured at 37° C. for 6 days, versus PBS control; FIGS. 4 and 5
Excerpt: The skin tissues of the upper jaw of ICR baby mice with an age of 12 days old were recovered under a stereoscopic microscope. The skin tissues were collected from both the left and right sides of the upper jaw, and the tissues were recovered from the total 5 mice. The skin sections recovered from the 5 mice were divided into the skin sections from the left side (used as a control) and those from the right side (used as a test oligopeptide). Thereafter, 5 skin sections were placed on a single nuclepore membrane (pore size: 8 μm; diameter: 13 mm). The skin sections were observed under a stereoscopic microscope, and the outside thereof was disposed on the front. 500 μl of Dulbecco's MEM/Ham F12 medium containing 1% BSA was added to 2 wells of a 24-well dish. Thereafter, a test oligopeptide solution (solvent: PBS) was added to one well to a final concentration of 20 μM, and only a solvent (PBS) as a control was added at the same amount to the other well. As test oligopeptides, unmodified oligopeptides and modified oligopeptides produced in (1) above were used.
Each of the membranes on which the skin tissues were placed was put on the aforementioned solution filled in the well, and it was then cultured at 37° C. for 6 days. From each membrane, 5 tissue sections were recovered in 100 μl of an SDS sample buffer (0.02 g/ml SDS, 0.2 g/ml glycerol, pH 6.8). The recovered sections were then dissolved therein using an ultrasonic crusher. The control was treated in the same manner. The solution obtained by the aforementioned treatment was electrophoresed (35 mA, 1.5 hours) by SDS-PAGE (acrylamide: 4% to 20%), and it was then transferred to a PVDF membrane. Thereafter, it was incubated in a Tris buffer solution (TBST) containing 5% skimmed milk for 1 hour. Thereafter, the resultant was allowed to react with mAb27 (10 μg/ml in TBST) obtained in Example 2 for 1 hour, and it was then sufficiently washed with TBS. Thereafter, peroxidase-labeled anti-rat IgG (Amersham) was 1,000 times diluted with TBST, and the diluted solution was used as a secondary antibody. The secondary antibody was allowed to react with the above resultant product, and the obtained reaction product was then sufficiently washed. Thereafter, the strength of the reaction of mAb27 was examined using an ECL kit (Amersham).
The term “AHF” shown in FIGS. 4 and 5 represents an antigen recognized by the monoclonal antibody mAb27 (specifically, a protein consisting of 1,439 amino acid residues shown in SEQ ID NO: 11).

Row | Substance | hair growth activity (thickness of AHF band detected with mAb27)
1 | Ser-Ile-Glu-Gln-Ser-Xaa-Asp-Gln-Asp-Glu (SIEQSC(Hexanoyl(6-maleimido))DQDE) [SEQ ID NO: 8] | particularly strong hair growth activity
2 | Ser-Ile-Glu-Gln-Ser-Xaa-Glu-Gln-Glu (SIEQSC(Hexanoyl(6-maleimido))EQE) [SEQ ID NO: 10] | strong hair growth activity
3 | Ser-Ile-Glu-Gln-Ser-Xaa-Asp [KMUA] (SIEQSC(KMUA)D) | strong hair growth activity
4 | Ser-Ile-Glu-Gln-Ser-Xaa-Asp [EMCA] (SIEQSC(Hexanoyl(6-maleimido))D) | strong hair growth activity; also recorded: particularly strong
5 | Ser-Ile-Glu-Gln-Ser-Xaa-Asp [BMPA] (SIEQSC(BMPA)D) | strong hair growth activity
6 | Ser-Ile-Glu-Gln-Ser-Xaa-Ala-Gln-Glu (SIEQSC(Hexanoyl(6-maleimido))AQE) [SEQ ID NO: 9] | particularly strong hair growth activity
